Here are results for one compound from patent publication US12521415B2, “Accelerating repair of mucosal injury using gold(III) compounds” (University of Kentucky Research Foundation, priority 2020, dated 2026).

In one test the test system is isolated IEC. In words: Western blot of IEC proteins from control or DSS colitis mice gavaged with AuPhos. Format: in vivo, mouse. The method, then:
Control or DSS colitis mice were gavaged with vehicle (−) or AuPhos (+) (as in FIG. 2) and sacrificed on D14. WB of isolated IEC proteins indicated are shown in nuclear and membranous protein fractions along with densitometry. (#mice=4 for each condition). *p<0.04. FIG. 16E. Normal human colonic biopsies were incubated at 4° C. with AuPhos×3 hrs. Membranous and nuclear fractions examined for indicated proteins by WB.
Taking advantage of the unique electrochemical properties and excellent safety profile of gold in humans, a stable gold compound was designed to modulate mitochondrial processes including oxidative phosphorylation (OXPHOS). […] IEC (FIG. 16C). […] These examples illustrate that AuPhos has utility for “gut selective” IBD therapy.
(Immunoblotting shows a protein as a band on a membrane.)

A further test deals with colonic NCM460 cells. In words: MitoSOX Red assay of mtROS (superoxide) production. Format: cell-based, human. Here is the method: FIG. 11A includes representative images showing AuPhos-induced (200 nM) mtROS (superoxide) production using MitoSOX Red assay.
Given the in vivo data in FIG. 10, it was determined if AuPhos increases ROS levels within mitochondria (mtROS). To examine this possibility, colonic NCM460 cells were cultured, treated with a positive control (Rotenone), AuPhos (200 nM) or AuPhos with PEG-SOD (negative control) and analyzed with MitoSOX Red (an indicator of mitochondrial superoxide). […] Studies in FIGS. 11C and 11D used human colonoids isolated from normal patients to examine effects of AuPhos on hydrogen peroxide (H2O2) production from normal and low-dose TNF-stimulated colonoids.

Another test has as its system DSS colitis mice. Nature of the test: DSS-induced colitis in mice treated with AuPhos. The conditions noted are these: for colonic ulceration (tissue histology): left colon. Format: in vivo, mouse. Here is the method:
FIG. 9A includes results for changes with 2% DSS given for 7 days followed by water. AuPhos was started (25 mg/kg q 3D) on DAY1. Body Wt changes shown as means of each group (n=6) with SEM for 9 and 13 day trials. FIG. 9B includes results for changes with 2% DSS given for 7 days followed by water. AuPhos was started (25 mg/kg q 3D) on DAY1. Body Wt changes shown as means of each group (n=6) with SEM for 9 and 13 day trials as shown, with corresponding DAI. FIG. 9C includes results for changes with 2% DSS given for 7 days followed by water. AuPhos was started (25 mg/kg q 3D) on DAY1. Histological score in DSS-colitis mice 7 and 13 days after DSS initation. Statistical significance was determined using 2-way ANOVA with Sidak's multiple comparison test (A,B) or unpaired t-test (C). FIG. 9D includes images showing results for changes with 2% DSS given for 7 days followed by water. AuPhos was started (25 mg/kg q 3D) on DAY1. Representative images of H&E staining of whole tissue scan from 13-day study. ★★<0.01, ★★★<0.0001.
FIG. 12A RT-qPCR analysis of cytokines and chemokine genes in AuPhos vs. controls at 9 and 13 days after DSS initiation. FIG. 12B RT-qPCR analysis of cytokines and chemokine genes in AuPhos vs. controls at 9 and 13 days after DSS initiation. FIG. 12C Quantitative RT-PCR analysis of inflammasome markers in D13 DSS mice. Statistical significance was determined using multiple t-test with Holm-Sidak's multiple method. FIG. 12D Serum IL-6 in AuPhos treated (n=4) and control mice, with or without anti-CD3 antibody. ★<0.05; ★★<0.01.
FIGS. 17A-17F illustrate that AuPhos improves DSS-induced colitis. Results shown are for changes with 2% DSS given for 7 days followed by water. AuPhos was started (25 mg/kg q3D) on DAY1. FIG. 17A. Body Wt changes shown as means of each group (n=6) with SEM for 15 day trial as shown, with FIG. 17B. corresponding DAI. FIG. 17C. Histological score in DSS-colitis mice after Day−7, −11, −13, and −15 of DSS initiation. Statistical significance was determined using 2-way ANOVA with Sidak's multiple comparison test (A,B) or unpaired t-test (C) FIG. 17D. Representative images of H&E staining of whole tissue scan from 13-day study. E. Effect of AuPhos on intestinal permeability using FITC-dextran in DSS-colitis mice (n=5) in a separate D7, D9, D11, D13 and D15 experiment. F. RT-qPCR analysis of cytokines and chemokines genes in AuPhos vs. vehicle treated DSS colitis mice from 9-day, 13-day and 15-day studies. ß<0.05, ßß<0.01, ßßß<0.0001.
Given the potential that AuPhos provides a novel approach to IBD therapy, DSS colitis mice were given (2% DSS×7D) 25 mg/kg i.g. AuPhos every 3 days (from the start of DSS) until sacrifice.
Findings in FIG. 9A-9D indicate that AuPhos attenuates tissue inflammation and enhances mucosal healing in DSS colitis mice. To interrogate the effects of AuPhos on Th1 and Treg cytokine production as well as chemokine and inflammasome mediators, mRNA from mice at time points indicated (as in FIG. 9A-9D). […] To test the question of whether AuPhos affected leukocytes directly, control and AuPhos-treated (25 mg/kg i.g. dosed every 3d×2) were injected with anti-CD3 mAb (antiTCR mAb). It is known that CD3 mAb induces a cytokine storm in the periphery and intestine.
The efficacy of AuPhos in the treatment of colitis. Given the potential that AuPhos provides a novel approach to IBD therapy, DSS colitis mice (2% DSS×7D) were given intragastric (i.g.) AuPhos (25 mg/kg) every 3 days (from the start of DSS) until sacrifice.

[1] abbreviates: 2% DSS x7D, 25 mg/kg i.g. every 3 days, 9 and 13 day trials.
The mark [2] stands for this setting: 2% DSS x7D, 25 mg/kg i.g. every 3 days, 15 day trial.
The mark [3] stands for this setting: DSS colitis mice, 9 and 13 days after DSS initiation, RT-qPCR.

As to `[Cl][Au]1([c]2ccccc2Cc2ccccn2)[P](c2ccccc2)(c2ccccc2)c2ccccc2[P]1(c1ccccc1)c1ccccc1` [AuPhos], in the test with isolated IEC (WB), the “Nrf2 and PGC1α levels in IEC” value is “increased Nrf2 and PGC1α levels”. Besides, in the test on isolated IEC (control and DSS colitis mice, sacrificed D14, WB), the “mitochondrial complex levels in IEC” value is reported as “increases mitochondrial complex levels”. In addition, the “AuPhos-induced mtROS production with PEG-SOD” value with colonic NCM460 cells (AuPhos 200 nM with PEG-SOD (negative control), NCM460) was “specifically inhibited with PEG-SOD”. Moreover, the “rise in mtROS production” value in the test with colonic NCM460 cells (AuPhos 200 nM, NCM460 cells, MitoSOX Red) turned out to be 45%. Further, in the test with DSS colitis mice (setting [1]), the DAI entry was “significantly reduces” and the “weight (Wt) loss” value is listed as “significantly reduces”. The “colonic ulceration (tissue histology)” value in the test on DSS colitis mice (2% DSS x7D, 25 mg/kg i.g. every 3 days, 13-day study) is given as “resolution of colonic ulceration throughout the left colon”. Also, in the test with DSS colitis mice (setting [2]), the “disease activity index (DAI)” value is on record as “significantly reduces” and the “weight (Wt) loss” value was “significantly reduces”. Further, the “tissue histologic indices (colitis score)” value with DSS colitis mice (2% DSS x7D, 25 mg/kg i.g. every 3 days, at 13D) is “significant decreases”. Moreover, in the test on DSS colitis mice (2% DSS x7D, 25 mg/kg i.g. every 3 days, at D11, 13 and 15), the “tissue histology indices (colitis score)” value is “significant decreases”. For the same compound, the “colonic ulceration (tissue histology)” value in the test with DSS colitis mice (15 day trial series) was “resolution of colonic ulceration throughout the left colon”. For the same compound, in the test on DSS colitis mice (D13 DSS mice, RT-PCR), the “markers of inflammasome signaling mRNA” value is recorded as “reduces”. The “pro-inflammatory cytokine mRNA and chemokine-mediators of colitis (mucosal mRNA)” value in the test with DSS colitis mice (DSS colitis mice, 9-day, 13-day and 15-day studies, RT-qPCR) is reported as “reduces”. Moreover, in the test on DSS colitis mice (setting [3]), the “chemokine-mediators of colitis mRNA (MCP-1, I-TAC and IP-10)” value is “reduces”; the “pro-inflammatory cytokine mRNA (IFNγ, TNF, IL-6 and IL-10)” value is listed as “reduces”. Further, the acute colitis result in the test on DSS colitis mice (DSS mice) is given as “attenuates acute colitis”.
